Structures can show the parent of a compound that is named as a salt.
Assays:
β-glucocerebrosidase = biological target: T1, β-glucocerebrosidase (Homo sapiens, UniProt P04062); details: as described in US 2011/0091442 and 2011/0092541; cited from earlier work
T1 sequence (P04062 40-536): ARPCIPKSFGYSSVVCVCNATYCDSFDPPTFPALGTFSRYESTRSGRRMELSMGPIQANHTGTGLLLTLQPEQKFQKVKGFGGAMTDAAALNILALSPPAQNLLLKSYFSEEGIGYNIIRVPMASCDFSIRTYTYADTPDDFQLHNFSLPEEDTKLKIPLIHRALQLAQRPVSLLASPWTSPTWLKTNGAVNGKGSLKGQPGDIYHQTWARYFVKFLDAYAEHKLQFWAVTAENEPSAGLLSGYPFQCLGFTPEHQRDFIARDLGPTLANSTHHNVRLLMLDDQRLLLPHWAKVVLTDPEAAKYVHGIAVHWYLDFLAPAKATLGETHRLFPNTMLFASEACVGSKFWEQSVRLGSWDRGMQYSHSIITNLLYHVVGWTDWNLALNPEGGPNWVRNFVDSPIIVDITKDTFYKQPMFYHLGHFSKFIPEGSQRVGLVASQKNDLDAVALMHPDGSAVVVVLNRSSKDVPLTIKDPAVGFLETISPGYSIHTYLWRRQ

[1] = Dynamic vapor sorption (DVS) hygroscopicity analysis; assay type: physicochemical; details: for Hygroscopicity (% water uptake up to 45% relative humidity): DVS, 25° C., 60 minutes hold per 10% step in relative humidity, weight increase as percentage of material weight
Description: Differences in hygroscopicity (moisture uptake) of the various forms of a solid material provide a measure of their relative stability at increasing relative humidity. Dynamic vapor sorption (DVS) analysis was performed for (3R,4R,5S)-5-(difluoromethyl)piperidine-3,4-diol, (3R,4R,5S)-5-(difluoromethyl)piperidine-3,4-diol fumarate Form A, (3R,4R,5S)-5-(difluoromethyl)piperidine-3,4-diol fumarate Form 1B and (3R,4R,5S)-5-(difluoromethyl)piperidine-3,4-diol tosylate. Moisture sorption isotherms for samples of each salt and the free base were obtained using a DVS-1 system from Surface Measurement Systems (London, UK). The relative humidity was cycled from 45% to 95% (sorption), back to 0% (desorption) and back to 45% (sorption) at a constant temperature of 25° C. with a hold time of 60 minutes per each 10% step in relative humidity. The increase in weight due to moisture uptake was measured as a percentage of the weight of the material.

[2] = Physical stability under stress and ambient conditions; assay type: physicochemical
Excerpt: (§1) The hydrochloride and fumarate Forms B, B2 and B3 salts of (3R,4R,5S)-5-(difluoromethyl)piperidine-3,4-diol were also found to be hygroscopic.

[3] = Separate dynamic vapor sorption test (hydrochloride salt); assay type: physicochemical
Excerpt: as §1

SMILES: O[C@H]1[C@H](O)CNC[C@@H]1C(F)F [Free Base, (3R,4R,5S)-5-(difluoromethyl)piperidine-3,4-diol]
- Inhibition of β-glucocerebrosidase (in words) (β-glucocerebrosidase): potent and selective inhibitors
- Hygroscopicity (% water uptake up to 45% relative humidity) [1]: 9.3%

SMILES: O=C(O)/C=C/C(=O)O.O[C@H]1[C@H](O)CNC[C@@H]1C(F)F [Fumarate Form 1B, (3R,4R,5S)-5-(difluoromethyl) piperidine-3,4-diol fumarate Form 1B]
- Hygroscopicity (% water uptake up to 45% relative humidity) [1]: 0.497%
- Hygroscopicity of the salt relative to the free base (fold lower than free base) ([1]; comparison of the Table 6 DVS values): roughly 20 fold

SMILES: O[C@H]1[C@H](O)CNC[C@@H]1C(F)F [Fumarate Form A, (3R,4R,5S)-5-(difluoromethyl)piperidine-3,4-diol fumarate Form A]
- Hygroscopicity (% water uptake up to 45% relative humidity) [1]: 0.09%
- Physical state after one day at 40° C. and 75% relative humidity [2]: physically stable
- Physical stability in slurries ([2]; slurries at 10° C. and 30° C. in a variety of organic solvents): physically stable
- Physical stability on wet grinding ([2]; wet grinding for 60 minutes at 30 Hz): physically stable

SMILES: Cc1ccc(S(=O)(=O)O)cc1.O[C@H]1[C@H](O)CNC[C@@H]1C(F)F [Tosylate, (3R,4R,5S)-5-(difluoromethyl)piperidine-3,4-diol tosylate]
- Hygroscopicity (% water uptake up to 45% relative humidity) [1]: 0.08%

SMILES: O=C(O)/C=C/C(=O)O.O[C@H]1[C@H](O)CNC[C@@H]1C(F)F [fumarate Form B3, (3R,4R,5S)-5-(difluoromethyl) piperidine-3,4-diol fumarate Form B3]
- Stability at ambient conditions ([2]; at least one day at ambient conditions (room temperature)): remained stable

SMILES: O=C(O)/C=C/C(=O)O.O[C@H]1[C@H](O)CNC[C@@H]1C(F)F [fumarate Form B, (3R,4R,5S)-5-(difluoromethyl) piperidine-3,4-diol fumarate Forms B, B2 and B3]
- Hygroscopicity (in words) [2]: hygroscopic
- Physical state after one day at 40° C. and 75% relative humidity [2]: became deliquescent

SMILES: Cl.O[C@H]1[C@H](O)CNC[C@@H]1C(F)F [hydrochloride, (3R,4R,5S)-5-(difluoromethyl)piperidine-3,4-diol hydrochloride]
- Relative humidity after which the salt became deliquescent [3]: > 60 % relative humidity
- Inhibition of β-glucocerebrosidase (in words) (β-glucocerebrosidase): potent and selective inhibitors
- Hygroscopicity (in words) [2]: hygroscopic

From patent publication US9750733B2, “Compounds for preventing and/or treating lysosomal storage disorders and/or degenerative disorders of the central nervous system” (Amicus Therapeutics, Inc., priority 2012, dated 2017)
